Measured values as given in ChEMBL document CHEMBL1126848, “Concepts and progress in the development of peptide mimetics” (J Med Chem, 1993).

Legend:
[1] = test system: Mus musculus; test: Concentration required toTRH reduced mean latencies mimetics in mice after i.p. administration using the Morris water maze test; 0.003-3; type: functional, organism-based
[2] = test system: Mus musculus; test: Concentration required toTRH reduced mean latencies mimetics in mice after p.o. administration using the Morris water maze test; 0.003-3; type: functional, organism-based

NC(=O)C[C@@H]1C[C@H](Cc2c[nH]cn2)C[C@H](C[C@@H]2CCC(=O)N2Cc2ccccc2)C1
Concentration [1]: 0.003 mg/kg | Concentration [2]: 0.003 mg/kg
